# Where “and” joins values, the source holds several entries; their conditions need not be identical. Equal entries are not always repeated.
# Tests used:
# Type in all cases: cell-based
# HepG2 cells = experiment: MTT assay for cell proliferation and cytotoxicity, HepG2; parameters: key to Inhibitory rate: inhibition rate = 1 - mean A490 sample/mean A490 control (fraction); settings: for IC50: HepG2, 48 h, MTT; for Inhibitory rate / ODtreated/ODcontrol: HepG2, fraction, per experiment; for Inhibition rate (16μM), 48 h, HepG2: preliminary screening, HepG2, 16 μM, mean±SD, unit not given
# Procedure: (§1) HepG2, HeLa, MCF-7, and KYSE-30 cells were grown in a humidified incubator at 37°C with 5% CO2 in DMEM supplemented with 10% fetal bovine serum (FBS), […] streptomycin, and 100 U/mL penicillin.
# (§2) When HepG2 cells reached 80% confluence, they were treated with 1 mL of trypsin and resuspended at a density of 10^5 cells/mL. Then, 100 μL of cell suspension was seeded into each well of a 96-well plate and incubated in a humidified atmosphere. The different concentrations of KJ-5 and KJ-12 (0, 1, 2, 4, 8, 16, and 32 μM) were added to each well, and the cells were further incubated for 48 h. Afterward, 20 μL of the MTT solution (5 mg/mL) was added to each well, and incubation was continued for another 4 h. The supernatant was discarded, and 200 μL of the DMSO solution was added to each well. The plate was shaken for 10 min in the dark. The absorbance values were measured at 490 nm using an enzyme-linked detector. The cell inhibition rate (%) was calculated using the following formula: (1-Mean A490 sample/Mean A490 control) × 100%.
# MCF-7 cells = experiment: MTT assay for cell proliferation, MCF-7; parameters: key to Inhibitory rate / Inhibition rate: inhibition rate = 1 - mean A490 sample/mean A490 control (fraction); settings: for Inhibition rate (16μM), 48 h, MCF-7: preliminary screening, MCF-7, 16 μM, mean±SD, unit not given
# Procedure: as §1, §2
# KYSE-30 cells = experiment: MTT assay for cell proliferation, KYSE-30; parameters: key to Inhibitory rate: inhibition rate = 1 - mean A490 sample/mean A490 control (fraction); settings: for Inhibitory rate: KYSE-30, given as fraction; for Inhibition rate (16μM), 48 h, KYSE-30: preliminary screening, KYSE-30, 16 μM, mean±SD, unit not given
# Procedure: as §1, §2
# HeLa cells = experiment: MTT assay for cell proliferation, HeLa; parameters: key to Inhibitory rate: inhibition rate = 1 - mean A490 sample/mean A490 control (fraction); settings: Hela; for Inhibitory rate / ODtreated/ODcontrol: fraction, per experiment; for Inhibition rate (16μM), 48 h, Hela: preliminary screening, mean±SD, unit not given
# Procedure: as §1, §2
# [1] = MCF-7, fraction, per experiment
# [2] = given as fraction, second of three experiments
# [3] = given as fraction, third of three experiments
# [4] = KYSE-30, first of three experiments
# [5] = KYSE-30, second of three experiments
# [6] = KYSE-30, third of three experiments
SMILES,Inhibitory rate (MCF-7 cells; [1]),ODtreated/ODcontrol (MCF-7 cells; [1]),Inhibitory rate (MCF-7 cells; [2]),Inhibition rate (MCF-7 cells; [3]),"Inhibition rate (16μM), 48 h, MCF-7 (MCF-7 cells)",ODtreated/ODcontrol (MCF-7 cells; second of three experiments),ODtreated/ODcontrol (MCF-7 cells; third of three experiments),IC50 (HepG2 cells),Inhibitory rate (HepG2 cells),ODtreated/ODcontrol (HepG2 cells),"Inhibition rate (16μM), 48 h, HepG2 (HepG2 cells)",ODtreated/ODcontrol (KYSE-30 cells; [4]),Inhibitory rate (KYSE-30 cells; first of three experiments),Inhibitory rate (KYSE-30 cells; second of three experiments),Inhibitory rate (KYSE-30 cells; third of three experiments),ODtreated/ODcontrol (KYSE-30 cells; [5]),ODtreated/ODcontrol (KYSE-30 cells; [6]),"Inhibition rate (16μM), 48 h, KYSE-30 (KYSE-30 cells)",Inhibitory rate (HeLa cells),ODtreated/ODcontrol (HeLa cells),other results
C[C@H]1CO[C@@H]2Cn3cc(C(=O)NCc4ccc(F)cc4F)c(=O)c(O)c3C(=O)N12 [Cabotegravir],–,–,–,–,–,–,–,–,–,–,–,–,–,–,–,–,–,–,–,–,IC50 (HepG2 cells; Homo sapiens): > 50 µM
COc1c2n(cc(C(=O)Nc3cccc(-c4cn(-c5ccccc5C(F)(F)F)nn4)c3)c1=O)C[C@H]1OC[C@H](C)N1C2=O [KJ-1],0.4609,0.5391,0.4929,0.3773,44.37±5.97,0.5071,0.6227,13.6 ± 1.09 µM,0.48 and 0.4907 and 0.4342,0.52 and 0.5093 and 0.5658,46.83±3.00,0.5729,0.4271,0.3646,0.3875,0.6354,0.6125,39.31±3.16,0.456 and 0.4789 and 0.3414,0.544 and 0.5211 and 0.6586,"Inhibition rate (16μM), 48 h, Hela (HeLa cells): 44.98±3.26"
COc1c2n(cc(C(=O)Nc3cccc(-c4cn(-c5ccccc5F)nn4)c3)c1=O)C[C@H]1OC[C@H](C)N1C2=O [KJ-2],0.5009,0.4991,0.4718,0.4501,47.43±2.55,0.5282,0.5499,25.3 ± 2.07 µM,0.513 and 0.5093 and 0.5087,0.487 and 0.4907 and 0.4913,51.03±0.23,0.5011,0.4989,0.4582,0.3717,0.5418,0.6283,44.92±6.50,0.497 and 0.5116 and 0.431,0.503 and 0.4884 and 0.569,"Inhibition rate (16μM), 48 h, Hela (HeLa cells): 47.99±4.29"
COc1c2n(cc(C(=O)Nc3cccc(-c4cn(-c5ccccc5C)nn4)c3)c1=O)C[C@H]1OC[C@H](C)N1C2=O [KJ-3],0.4113,0.5887,0.4254,0.3305,38.91±5.12,0.5746,0.6695,19.5 ± 0.5 µM,0.4219 and 0.4728 and 0.4157,0.5781 and 0.5272 and 0.5843,43.68±3.13,0.6097,0.3903,0.2997,0.2805,0.7003,0.7195,32.35±5.86,0.3938 and 0.4133 and 0.3211,0.6062 and 0.5867 and 0.6789,"Inhibition rate (16μM), 48 h, Hela (HeLa cells): 37.61±4.86"

# — publication PMC10590056, “Design and synthesis of cabotegravir derivatives bearing 1,2,3-triazole and evaluation of anti-liver cancer activity” (Frontiers in Pharmacology, 2023)
